Laboratory results reported in patent publication US20150315188A1, “COMPOUNDS AND METHODS FOR TREATMENT OF HYPERTENSION” (MEDIVATION TECHNOLOGIES, INC., priority 2012, published 2015).
Marks after values point to notes of the source that are not given here.

Legend:
rat hepatocytes = assay: Stability in the presence of rat hepatocytes; assay type: in vitro ADME, Sprague Dawley rat; conditions: rat hepatocytes, 5 μM, 37° C., average of duplicates; ^a = 0-120 minute time points
Experimental: (§1) Compounds of the invention were tested for stability in the presence of dog, rat and human hepatocytes over a 4 hour period by LC/MS/MS. The study was performed by Integrated Analytical Solutions, Berkeley, Calif.
(§2) Reference Standards and Solutions: Compounds of the invention were stored as powders at ambient temperature in a desiccator and protected from light. Reference stock solutions of Compound Nos. 50a, 50b, 79a, 82, 91a and 178d, as 20 mM in DMSO were prepared and subsequently diluted to 2 mM in MeOH to provide working stock solutions (WSS). Unused standard solutions were stored at −20° C.
(§3) Hepatocyte Preparation: Human (mixed gender), Beagle dog (male) and Sprague Dawley rat (male) cryopreserved hepatocytes were purchased from Life Technologies Corporation. Hepatocytes were removed from liquid nitrogen, quickly thawed in a 37° C. water bath and transferred to Hepatocyte Thawing/Plating Medium (Cryopreserved Hepatocyte Recovery Medium, CHRM, Life Technologies Inc.). The cells were pelleted by slow speed centrifugation (˜100×g, 6 min) and resuspended at a high cell density. Hepatocyte viability was determined by trypan blue exclusion. Hepatocyte incubation medium (Life Technologies, Inc.) was added to generate a cell density of 2.0×10^6 cells/mL.
(§4) Hepatocyte Incubations for Stability: The 2 mM WSS was diluted 1 in 200 in hepatocyte incubation medium (pH 7.4) to 10 μM. A solution containing control compounds was prepared similarly to contain 10 μM each of dextromethorphan and testosterone. The solutions of test compounds and controls at 10 μM in hepatocyte incubation medium were pre-incubated at 37° C. for 10 min. Aliquots (250 μL) of hepatocyte suspensions (at 2.0×10^6 cells/mL) were transferred to appropriate 48-well plates and pre-incubated at 37° C. for 10 minutes. Metabolism was initiated by adding 250 μL pre-incubated medium (containing test drug) to wells containing cells. A negative control reaction excluding hepatocytes was used to monitor aqueous stability and/or non-specific adsorption. The final reaction mixtures contained 5 μM of test or control compound and 1.0×10^6 cells/mL. All reactions were performed in duplicate and carried at 37° C. in an incubator. Dextromethorphan and testosterone were used as control drugs to verify hepatocyte activity.
(§5) Aliquots were removed from each metabolism reaction at 0, 0.5, 2 and 4 hours. The reactions were terminated by adding each aliquot to a vessel containing 2× volumes (80 μL) of Internal Standard Solution (acetonitrile containing 50 ng/mL 2-(2,8-dimethyl-3,4-dihydro-1H-pyrido[4,3-b]indol-5(2H)-yl)-1-(pyridin-4-yl)ethanol (ISS1), 50 ng/mL of 2-(2,8-dimethyl-3,4-dihydro-1H-pyrido[4,3-b]indol-5(2H)-yl)-1-(piperidin-1-yl)ethanone (ISS2) and 5 ng/mL diphenhydramine. Terminated reactions were centrifuged at 6000 g for 30 mins at 4° C. to remove the precipitated proteins and cell debris. Following centrifugation, 20 μL of each supernatant was transferred to a deep-well microplate and diluted with 5× volumes (100 μL) of 0.2% formic acid in water. Compound 178d samples were diluted with 5× volumes (100 μL) of 0.1% HFBA in water. Samples were analyzed by LC/MS/MS.
(§6) Calculation of Metabolism Parameters: Percent remaining was measured by dividing the analyte/IS peak area ratio at the designated sample time by the peak area ratio at time 0. ISS1 served as the IS for Compound No. 178d. ISS2 served as the IS for Compound nos. 50a, 50b, 79a, 82 and 91a. The metabolic half-life (T1/2) was calculated using all time points unless otherwise noted. The T1/2 values were calculated as 0.693/k, where k is the slope of the log analyte/internal standard peak area ratio versus time. Metabolism rate was calculated by dividing the starting concentration of substrate by the concentration of hepatocytes, then dividing by the T1/2 value.

dog hepatocytes = assay: Stability in the presence of dog hepatocytes; assay type: in vitro ADME, Beagle dog; conditions: dog hepatocytes, 5 μM, 37° C., average of duplicates; ^a = 0-120 minute time points
Experimental: as §1, §2, §3, §4, §5, §6

human hepatocytes = assay: Stability in the presence of human hepatocytes; assay type: in vitro ADME; conditions: human hepatocytes, 5 μM, 37° C., average of duplicates; ^a = 0-120 minute time points
Experimental: as §1, §2, §3, §4, §5, §6

Cc1cc2c3c(n(CC(C)(O)c4ccncc4)c2cc1Cl)CCN1CCCC31 (single isomer, unassigned) [50b]
T1/2 Rat (rat hepatocytes): >240 min | T1/2 Dog (dog hepatocytes): 100^a min | T1/2 Human (human hepatocytes): 82^a min
